The text below walks through data of paper PMC6631010, “Development of a Simple Assay Method for Adenosine Deaminase via Enzymatic Formation of an Inosine-Tb^3+ Complex” (Sensors (Basel, Switzerland), 2019).

In the experiment the target is T1, Adenosine deaminase (ADA) (Bos taurus, UniProt P56658).
T1 sequence (P56658 2-363): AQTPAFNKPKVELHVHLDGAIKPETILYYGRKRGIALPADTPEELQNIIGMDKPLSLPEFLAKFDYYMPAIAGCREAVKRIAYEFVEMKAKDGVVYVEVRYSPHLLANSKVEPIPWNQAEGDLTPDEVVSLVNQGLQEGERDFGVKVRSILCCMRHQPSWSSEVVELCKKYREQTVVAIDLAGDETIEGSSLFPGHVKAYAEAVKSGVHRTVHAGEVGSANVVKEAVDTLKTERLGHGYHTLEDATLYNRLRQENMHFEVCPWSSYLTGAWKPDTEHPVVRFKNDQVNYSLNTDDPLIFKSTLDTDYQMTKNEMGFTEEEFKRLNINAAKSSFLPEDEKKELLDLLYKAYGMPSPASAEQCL
Kind of experiment: biochemical.

In general, IC50 refers to the concentration needed to halve the response being measured. High values mean lower potency, low ones higher potency. `CCCCCC[C@@H]([C@@H](C)O)n1cnc2c(N)ncnc21` (racemic) [EHNA, erythro-9-(2-hydroxy-3-nonyl)adenine] yielded an IC50 of 64 nM.
